Biological target: T1, c-Met kinase (Homo sapiens, UniProt P08581)
T1 construct: c-Met kinase domain recombinant protein diluted with 49 μL of the reaction buffer was added
Test: Inhibitory effect on c-Met kinase activity at molecular level (ELISA);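 further: recombinant c-Met kinase domain with 5 µM ATP, 1 h at 37 °C, substrate phosphorylation detected by anti-phosphotyrosine PY99 ELISA at 490 nm versus DMSO negative control, ATP-free wells as blank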
Format: biochemical
Description: Experiment for Preliminarily Evaluating the Inhibitory Effect on the Activity of Receptor Tyrosine Kinase c-Met at Molecular Level
After discarding the liquid in the wells, the plate was washed with T-PBS (0.1% Tween-20 in PBS) in an amount of 200 μL/well three times, each for 5 minutes. The ELISA plate was dried in an oven at 37° C. for 1-2 hours. 50 μl of adenosine triphosphate (ATP) solution diluted with reaction buffer (50 mM 4-hydroxyethylpiperazine ethanesulfonic acid (HEPES) pH 7.4, 50 mM MgCl2, 0.5 mM MnCl2, 0.2 mM Na3VO4, 1 mM dithiothreitol (DTT)) to a final concentration of 5 μM was added to each well. The compounds were diluted to an appropriate concentration with DMSO (1 μL/well) or a solution containing DMSO in a corresponding concentration (negative control well), and then c-Met kinase domain recombinant protein diluted with 49 μL of the reaction buffer was added therein to initiate the reaction, with two ATP-free control wells for each test. The plate was placed in a shaker (100 rpm) at 37° C. for reacting 1 hour, and washed with T-PBS three times. Primary antibody PY99 diluent was added in an amount of 100 μL/well to allow the reaction in a shaker at 37° C. for 0.5 hour, and then the plate was washed with T-PBS three times. Then the secondary antibody horseradish peroxidase labeled goat anti-mouse IgG diluent was added in an amount of 100 μL/well, and the plate was placed in a shaker at 37° C. for reacting 0.5 hour, and then washed with T-PBS three times. 2 mg/ml of o-phenylenediamine (OPD) coloring solution (diluted with 0.1 M citric acid-sodium citrate buffer (pH=5.4) containing 0.03% H2O2) was then added at 100 μL/well and reacted at 25° C. for 1-10 min with light blocked (ultrasound was required to dissolve OPD, the coloring solution was prepared when needed). The reaction was stopped by adding 2 M of H2SO4 in an amount of 50 μL/well, and a wavelength-adjustable microplate reader SPECTRA MAX 190 was read at 490 nm.
The inhibition rate of the sample was calculated by the following equation:

T1 sequence (P08581 1078-1345 limits assumed): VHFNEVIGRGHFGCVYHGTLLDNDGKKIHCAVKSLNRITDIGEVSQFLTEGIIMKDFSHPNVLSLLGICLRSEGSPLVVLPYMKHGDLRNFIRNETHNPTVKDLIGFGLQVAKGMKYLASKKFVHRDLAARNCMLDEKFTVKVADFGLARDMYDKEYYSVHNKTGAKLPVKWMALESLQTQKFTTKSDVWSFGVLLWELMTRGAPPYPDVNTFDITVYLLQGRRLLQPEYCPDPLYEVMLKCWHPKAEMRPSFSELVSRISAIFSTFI

First: Nc1ccc(Oc2ccnc3c(Br)c(OCCN4CCOCC4)ncc23)c(F)c1 [Compound 4S, 4-((8-bromo-7-(2-morpholinoethoxy)-1,6-naphthyridin-4-yl)oxy)-3-fluoroaniline]
Second: Nc1ccc(Oc2ccnc3cc(OCCN4CCOCC4)ncc23)c(F)c1 [Compound 5S]
The IC50 of the first is higher: 1000 to 10000 nM for the first, 100 to 1000 nM for the second.

O=C(Nc1ccc(F)cc1)C1(C(=O)Nc2ccc(Oc3ccnc4c(Br)c(OCCN5CCOCC5)ncc34)c(F)c2)CC1 [Compound 6S, N-(4-((8-bromo-7-(2-morpholinoethoxy)-1,6-naphthyridin-4-yl)oxy)-3-fluorophenyl)-N-(4-fluorophenyl) cyclopropyl-1,1-dicarboxamide] and CN1CCN(CCOc2ncc3c(Oc4ccc(NC(=O)C5(C(=O)Nc6ccc(F)cc6)CC5)cc4F)ccnc3c2Br)CC1 [Compound 10S, N-(4-((8-bromo-7-(2-(4-methylpiperazin-1-yl)ethoxy)-1,6-naphthyridin-4-yl)oxy)-3-fluorophenyl)-N-(4-fluorophenyl) cyclopropyl-1,1-dicarboxamide] fall in the same range of IC50: 10 to 100 nM for the first, 10 to 100 nM for the second.

First: CN(C(=O)C1(C(=O)Nc2ccc(Oc3ccnc4cc(OCCN5CCOCC5)ncc34)c(F)c2)CC1)c1ccc(F)cc1 [Compound 14S, N-(3-fluoro-4-((7-(2-morpholinoethoxy)-1,6-naphthyridin-4-yl)oxy)phenyl)-N-(4-fluorophenyl)-N-methylcyclopropyl-1,1-dicarboxamide]
Second: C[C@H]1COCCN1CCOc1cc2nccc(Oc3ccc(NC(=O)C4(C(=O)Nc5ccc(F)cc5)CC4)cc3F)c2cn1 [Compound 29S, (S)-N-(3-fluoro-4-((7-(2-(3-methylmorpholino)ethoxy)-naphthyridin-4-yl)oxy)phenyl)-N-(4-fluorophenyl) cyclopropyl-1,1-dicarboxamide]
The IC50 of the first is higher: 100 to 1000 nM for the first, 10 to 100 nM for the second.

Compared with O=C(Nc1ccc(F)cc1)c1cccn(-c2ccc(Oc3ccnc4cc(OCCN5CCOCC5)ncc34)c(F)c2)c1=O [Compound 16S, 1-(3-fluoro-4-((7-(2-morpholinoethoxy)-1,6-naphthyridin-4-yl)oxy)phenyl)-N-(4-fluorophenyl)-2-oxo-1,2-dihydropyridine-3-carboxamide], COC(=O)c1cccn(-c2ccc(Oc3ccnc4cc(OCCN5CCOCC5)ncc34)c(F)c2)c1=O [Compound 17S, methyl 1-(3-fluoro-4-((7-(2-morpholinoethoxy)-1,6-naphthyridin-4-yl)oxy)phenyl)-2-oxo-1,2-dihydropyridine-3-carboxylate] is lower in IC50: 10 to 100 nM for the first, 1 to 10 nM for the second. The second is the more potent here.

Compared with O=C(Cc1ccccc1)Nc1ccc(Oc2ccnc3c(Br)c(OCCN4CCOCC4)ncc23)c(F)c1 [Compound 18S, N-(4-((8-bromo-7-(2-morpholinoethoxy)-1,6-naphthyridin-4-yl)oxy)-3-fluorophenyl)-2-phenylacetamide], O=C(Nc1ccc(Oc2ccnc3c(Br)c(OCCN4CCOCC4)ncc23)c(F)c1)c1c[nH]cc(-c2ccccc2)c1=O [Compound 19S, N-(4-((8-bromo-7-(2-morpholinoethoxy)-1,6-naphthyridin-4-yl)oxy)-3-fluorophenyl)-4-oxo-5-phenyl-1,4-dihydropyridine-3-carboxamide] is lower in IC50: 100 to 1000 nM for the first, 10 to 100 nM for the second.

O=C(Nc1ccc(Oc2ccnc3c(Br)c(OCCN4CCOCC4)ncc23)c(F)c1)c1c[nH]cc(-c2ccc(F)cc2)c1=O [Compound 21S, N-(4-((8-bromo-7-(2-morpholinoethoxy)-1,6-naphthyridin-4-yl)oxy)-3-fluorophenyl)-5-(4-fluorophenyl)-4-oxo-1,4-dihydropyridine-3-carboxamide] and O=C(Nc1ccc(F)cc1)C1(C(=O)Nc2ccc(Oc3ccnc4cc(N5CCOCC5)ncc34)c(F)c2)CC1 [Compound 27S, N-(3-fluoro-4-((7-morpholino-1,6-naphthyridin-4-yl)oxy)phenyl)-N-(4-fluorophenyl)cyclopropyl-1,1-dicarboxamide] fall in the same range of IC50: 10 to 100 nM for the first, 10 to 100 nM for the second.

O=C(Nc1ccc(F)cc1)C1(C(=O)Nc2ccc(Oc3ccnc4cc(N5CCC(N6CCOCC6)CC5)ncc34)c(F)c2)CC1 [Compound 28S, N-(3-fluoro-4-((7-(4-morpholinopiperidin-1-yl)--naphthyridin-4-yl)oxy)phenyl)-N-(4-fluorophenyl)cyclopropyl-1,1-dicarboxamide] and O=C(COc1cc2nccc(Oc3ccc(NC(=O)C4(C(=O)Nc5ccc(F)cc5)CC4)cc3F)c2cn1)N1CCOCC1 [Compound 36S, N-(3-fluoro-4-((7-(2-morpholino-2-acetoxy)-1,6-naphthyridin-4-yl)oxy)phenyl)-N-(4-fluorophenyl)cyclopropyl-1,1-dicarboxamide] fall in the same range of IC50: 10 to 100 nM for the first, 10 to 100 nM for the second.

C[C@@H]1COCCN1CCOc1cc2nccc(Oc3ccc(NC(=O)C4(C(=O)Nc5ccc(F)cc5)CC4)cc3F)c2cn1 [Compound 30S, (R)-N-(3-fluoro-4-((7-(2-(3-methylmorpholino)ethoxy)-naphthyridin-4-yl)oxy)phenyl)-N-(4-fluorophenyl) cyclopropyl-1,1-dicarboxamide] and O=C(Nc1ccc(F)cc1)C1(C(=O)Nc2ccc(Oc3ccnc4cc(OCCn5ccnc5)ncc34)c(F)c2)CC1 [Compound 31S, N-(4-((7-(2-(1H-imidazol-1-yl)ethoxy)-naphthyridin-4-yl)oxy)-3-fluorophenyl)-N-(4-fluorophenyl)cyclopropyl-1,1-dicarboxamide] fall in the same range of IC50: 10 to 100 nM for the first, 10 to 100 nM for the second.

O=C(Nc1ccc(F)cc1)C1(C(=O)Nc2ccc(Oc3ccnc4cc(N5CCN(Cc6ccccc6)CC5)ncc34)c(F)c2)CC1 [Compound 32S, N-(4-((7-(4-benzylpiperazin-1-yl)-naphthyridin-4-yl)oxy)-3-fluorophenyl)-N-(4-fluorophenyl)cyclopropyl-1,1-dicarboxamide] and O=C(Nc1ccc(F)cc1)C1(C(=O)Nc2ccc(Oc3ccnc4cc(-c5ccc(N6CCOCC6)cc5)ncc34)c(F)c2)CC1 [Compound 50S, N-(3-fluoro-4-((7-(4-morpholinophenyl)-1,6-naphthyridin-4-yl)oxy)phenyl)-N-(4-fluorophenyl)cyclopropyl-1,1-dicarboxamide] fall in the same range of IC50: 10 to 100 nM for the first, 10 to 100 nM for the second.

O=C(Nc1ccc(F)cc1)C1(C(=O)Nc2ccc(Oc3ccnc4[nH]c(=O)cnc34)c(F)c2)CC1 [Compound 33S, N-(3-fluoro-4-((3-oxo-3,4-dihydropyrido [2,3-b]pyrazin-8-yl)oxy)phenyl)-N-(4-fluorophenyl)cyclopropyl-1,1-dicarboxamide] and O=C(Nc1ccc(F)cc1)C1(C(=O)Nc2ccc(Oc3ccnc4ncc(=O)[nH]c34)c(F)c2)CC1 [Compound 34S, N-(3-fluoro-4-((2-oxo-1,2-dihydropyrido [2,3-b]pyrazin-8-yl)oxy)phenyl)-N-(4-fluorophenyl)cyclopropyl-1,1-dicarboxamide] fall in the same range of IC50: 100 to 1000 nM for the first, 100 to 1000 nM for the second.

CCN1CCC(Nc2cc3nccc(Oc4ccc(NC(=O)c5ccnn(-c6ccc(F)cc6)c5=O)cc4F)c3cn2)C(F)C1 (stereo not shown) [Compound 35S, N-(4-((7-((1-ethyl-3-fluoropiperidin-4-yl)amino)-1,6-naphthyridin-4-yl)oxy)-3-fluorophenyl)-2-(4-fluorophenyl)-3-oxo-2,3-dihydropyridazine-4-carboxamide] and O=C(Nc1ccc(F)cc1)C1(C(=O)Nc2ccc(Oc3ccnc4cc(-c5ccc([N+](=O)[O-])cc5)ncc34)c(F)c2)CC1 [Compound 48S, N-(3-fluoro-4-((7-(4-nitrophenyl)-1,6-naphthyridin-4-yl)oxy)phenyl)-N-(4-fluorophenyl)cyclopropyl-1,1-dicarboxamide] fall in the same range of IC50: 10 to 100 nM for the first, 10 to 100 nM for the second.

Source: patent publication US10710996B2, “Pyrido-azaheterecydic compound and preparation method and use thereof” (SHANGHAI INSTITUTE OF MATERIA MEDICA, CHINESE ACADEMY OF …, priority 2015, dated 2020)
